Assay results taken from article PMC9964023 (Marine Drugs, 2023).
“Also recorded” adds a separate entry of the source. Bridge positions count the residues as written; N and C are the ends. Peptide text beside a SMILES is read from it.

How the values were obtained:
Experiment in all cases: biochemical
[1] = biological target: T1, norepinephrine transporter (NET) (Rattus norvegicus, UniProt Q63380); type: biochemical
T1 construct: brains were processed to yield synaptosomes as previously described; from tissue; host or cells: rat whole brain minus caudate and cerebellum, synaptosomes
T1 sequence (Q63380 1-617): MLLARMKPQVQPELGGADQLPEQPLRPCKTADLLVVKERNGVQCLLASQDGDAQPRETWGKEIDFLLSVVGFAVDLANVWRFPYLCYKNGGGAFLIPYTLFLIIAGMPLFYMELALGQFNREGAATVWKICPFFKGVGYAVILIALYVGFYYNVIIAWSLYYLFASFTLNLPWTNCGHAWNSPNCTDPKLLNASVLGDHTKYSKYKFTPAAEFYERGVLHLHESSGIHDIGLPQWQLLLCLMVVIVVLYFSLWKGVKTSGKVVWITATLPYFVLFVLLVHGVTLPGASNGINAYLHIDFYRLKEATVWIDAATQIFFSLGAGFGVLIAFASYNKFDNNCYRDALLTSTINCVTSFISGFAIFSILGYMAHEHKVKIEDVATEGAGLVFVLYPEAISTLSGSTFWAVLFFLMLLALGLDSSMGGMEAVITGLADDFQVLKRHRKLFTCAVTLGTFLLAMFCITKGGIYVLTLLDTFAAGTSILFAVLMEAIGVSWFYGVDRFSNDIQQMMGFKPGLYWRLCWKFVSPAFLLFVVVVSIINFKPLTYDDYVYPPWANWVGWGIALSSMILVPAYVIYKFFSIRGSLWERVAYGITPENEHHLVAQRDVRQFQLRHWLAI

[2] = biological target: T2, serotonin transporter (SERT) (Rattus norvegicus, UniProt P31652)
T2 construct: brains were processed to yield synaptosomes as previously described; from tissue; host or cells: rat whole brain minus caudate and cerebellum, synaptosomes
T2 sequence (P31652 whole entry): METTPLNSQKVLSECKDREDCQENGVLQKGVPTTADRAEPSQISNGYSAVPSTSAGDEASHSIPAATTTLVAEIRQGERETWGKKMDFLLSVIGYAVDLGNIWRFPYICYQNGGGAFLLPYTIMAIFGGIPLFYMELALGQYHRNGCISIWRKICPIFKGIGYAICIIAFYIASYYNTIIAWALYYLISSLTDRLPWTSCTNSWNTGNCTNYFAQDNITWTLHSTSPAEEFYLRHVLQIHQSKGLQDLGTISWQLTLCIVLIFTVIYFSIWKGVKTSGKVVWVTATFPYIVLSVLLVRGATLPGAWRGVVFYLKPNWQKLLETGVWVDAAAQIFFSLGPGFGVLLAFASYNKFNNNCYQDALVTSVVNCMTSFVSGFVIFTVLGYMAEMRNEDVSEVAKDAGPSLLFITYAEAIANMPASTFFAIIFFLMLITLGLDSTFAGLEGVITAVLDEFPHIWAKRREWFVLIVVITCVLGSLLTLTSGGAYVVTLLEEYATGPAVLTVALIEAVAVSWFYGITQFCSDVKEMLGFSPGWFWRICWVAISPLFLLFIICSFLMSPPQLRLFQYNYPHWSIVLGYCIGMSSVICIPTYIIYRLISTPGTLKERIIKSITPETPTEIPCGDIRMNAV

[3] = biological target: T3, dopamine transporter (DAT) (Rattus norvegicus, UniProt P23977)
T3 construct: brains were processed to yield synaptosomes as previously described; from tissue; host or cells: rat caudate synaptosomes
T3 sequence (P23977 whole entry): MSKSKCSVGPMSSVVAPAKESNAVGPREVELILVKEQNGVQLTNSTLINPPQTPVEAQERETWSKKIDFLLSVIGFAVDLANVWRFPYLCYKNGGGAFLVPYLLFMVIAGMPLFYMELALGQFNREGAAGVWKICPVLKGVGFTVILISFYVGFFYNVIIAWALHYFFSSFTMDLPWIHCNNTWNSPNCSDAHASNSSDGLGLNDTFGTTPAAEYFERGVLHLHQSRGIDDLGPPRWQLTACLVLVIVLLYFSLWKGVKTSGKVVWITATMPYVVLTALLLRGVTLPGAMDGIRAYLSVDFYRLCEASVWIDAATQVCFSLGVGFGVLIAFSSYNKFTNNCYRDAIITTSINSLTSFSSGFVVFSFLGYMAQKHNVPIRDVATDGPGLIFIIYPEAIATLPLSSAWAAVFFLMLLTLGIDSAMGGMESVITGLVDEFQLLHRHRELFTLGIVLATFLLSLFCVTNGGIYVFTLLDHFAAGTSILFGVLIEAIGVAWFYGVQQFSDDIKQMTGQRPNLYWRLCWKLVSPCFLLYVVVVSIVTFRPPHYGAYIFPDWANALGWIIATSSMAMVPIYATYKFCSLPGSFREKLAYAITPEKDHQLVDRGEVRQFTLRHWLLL

Row | SMILES | IC50 [1] [µM] | activity at NET relative to ribbon isomer (in words) [1] | IC50 [2] [µM] | IC50 [3] [µM]
1 | CSCC[C@@H]1NC(=O)[C@H](CCCNC(=N)N)NC(=O)[C@H](Cc2ccc(O)cc2)NC(=O)CNC(=O)[C@@H]2CSSC[C@H](NC1=O)C(=O)N[C@@H](C(C)C)C(=O)N1CCC[C@H]1C(=O)N[C@H](C(N)=O)CSSC[C@H](NC(=O)[C@@H](NC(=O)[C@@H](N)CO)[C@@H](C)O)C(=O)N2 [PnID B] (H-STCCGYRMCVPC-NH2; disulfide 3-12, 4-9) | 10 |  |  | 
2 | CSCC[C@@H]1NC(=O)[C@H](CCCNC(=N)N)NC(=O)[C@H](Cc2ccc(O)cc2)NC(=O)CNC(=O)[C@@H]2CSSC[C@@H](C(N)=O)NC(=O)[C@@H]3CCCN3C(=O)[C@H](C(C)C)NC(=O)[C@H](CSSC[C@H](NC(=O)[C@@H](NC(=O)[C@@H](N)CO)[C@@H](C)O)C(=O)N2)NC1=O [PnID A] (H-STCCGYRMCVPC-NH2; disulfide 3-9, 4-12) | > 100 | more than ten times less activity; also recorded: much less active in inhibiting the rat NET | > 100 | > 100
